In BigSolDB 2.1:

CN1CC(O)c2cc(N=NC(N)=O)c(O)cc21 (centres undefined)
solubility (mole fraction)
Conditions | 278.15 K | 283.15 K | 288.15 K | 293.15 K | 298.15 K | 303.15 K | 308.15 K | 313.15 K | 318.15 K
in DMF | 0.00095 | 0.00115 | 0.00129 | 0.0015 | 0.00177 | 0.00202 | 0.00231 | 0.00277 | 0.00335
in DMSO | 0.00619 | 0.0073 | 0.00863 | 0.01 | 0.0113 | 0.0129 | 0.0146 | 0.0159 | 0.0174
in ethanol | 1.8e-05 | 2.15e-05 | 2.42e-05 | 3.02e-05 | 3.67e-05 | 4.29e-05 | 5.24e-05 | 6.97e-05 | 8.54e-05
in methanol | 3.56e-05 | 4.38e-05 | 5.31e-05 | 6.89e-05 | 8.35e-05 | 9.97e-05 | 0.00012 | 0.000147 | 0.000173
in n-propanol | 1.75e-05 | 2.05e-05 | 2.41e-05 | 2.77e-05 | 3.18e-05 | 3.66e-05 | 4.5e-05 | 5.92e-05 | 7.31e-05
in water | 2.81e-05 | 3.26e-05 | 3.78e-05 | 4.4e-05 | 5.15e-05 | 6.03e-05 | 6.87e-05 | 7.98e-05 | 9.69e-05
